Measured values reported in US12036212B2, “Enhancement of tumor response to chemotherapy by activation of the asmase/ceramide pathway through timed administration of a short-acting anti-angiogenic agent” (Memorial Sloan-Kettering Cancer Center, priority 2014, dated 2024).

What was measured:
[1] = system: MCA/129 fibrosarcomas; experiment: Endothelial apoptosis in vivo (TUNEL/MECA-32) in MCA/129 fibrosarcomas; parameters: species or system mice; settings: gemcitabine 240 mg/kg
Experimental: Human HCT-116 colon cancer cells and MCA/129 murine sarcoma cells were maintained in DMEM with 10% fetal bovine serum, with 100 u/ml penicillin and 100 μg/ml streptomycin. Cells were grown as monolayers in 75 cm^2 culture flasks at 37° C. in 10% CO2 humidified incubators. Cells were trypsinized, washed in PBS and diluted in Matrigel/PBS solution (40:60 v/v) for HCT-116 xenografts or in PBS for MCA/129 syngeneic tumor grafts. Cells (3×10^6 for HCT-116 or 1×10^6 for MCA129) were injected subcutaneously into the flanks of mice (Garcia-Barros et al. Science 300, 1155-1159, 2003).
To evaluate acute endothelial apoptosis, tumors were grown in mice and treated with drugs as above. After the first treatment, tumors were harvested at specified times, placed into formalin overnight and paraffin-embedded the next day. Paraffin-embedded sections (5 μm) were co-stained for apoptotic endothelium using TUNEL and the endothelial-specific monoclonal antibody MECA-32 (Developmental Studies Hybridoma Bank, developed under the auspices of the NICHD and maintained by The University of Iowa, IA).
Similar results were observed using MCA/129 murine fibrosarcoma tumors implanted in Sv129/Bl6^asmase+/+ mice. […] After 4 hours of treatment, tumors were harvested and endothelial cell apoptosis quantified.

[2] = system: ASMase; experiment: ASMase activity radioenzymatic assay in BAEC; assay type: cell-based, bovine
Experimental: BAEC were established from the intima of bovine aorta as described^1. Stock cultures were grown in 100-mm dishes in Dulbecco's modified Eagle's medium (DMEM) supplemented with glucose (1 g/liter), 5% heat-inactivated calf serum (CS), penicillin (50 units/ml), and streptomycin (50 μg/ml). Purified human recombinant bFGF (1 ng/ml; R&D Systems, Inc., Minneapolis, MN) was added every other day during the exponential growth phase. […] These plateau phase cells were either used for experiments, or further sub-cultured (up to a maximum of 10 times) at a split ratio of 1:8. For sub-culturing, monolayers were dissociated with STV (0.05% trypsin and 0.02% EDTA in PBS) for 2-3 min at 22° C., washed twice in 5% CS-DMEM, and resuspended in DMEM with supplements as above. These mild conditions of trypsinization were sufficient to detach cells but not injure, stimulate, or affect cell function in a detectable way. BAEC were maintained at 37° C. in 10% CO2 humidified incubators.
ASMase activity was quantified by radioenzymatic assay using [^14C-methylcholine]sphingomyelin (Amersham) as substrate as described (Schissel et al. J Biol Chem, 271, 18431-18436, 1996). Cell lysates were incubated with [^14C-methylcholine]-sphingomyelin substrate (0.026 mCi/9.5 nmol) in 250 mM sodium acetate, pH 5.0 supplemented with 0.1% Triton X-100 and 1 mM EDTA or 0.1 mM ZnCl. Reactions were terminated after 1 h with CHCl3:MeOH:1N HCl (100:100:1, v/v/v), and [^14C-methylcholine]phosphocholine product in the aqueous layer of the Folch extract was quantified using a Beckman Packard 2200 CA Tricarb scintillation counter. For detection of ASMase activity in patients, 10 μl of serum was used.
To test the effect of chemotherapy on ASMase signaling and ceramide production, BAEC were treated with paclitaxel (100 nM) and ASMase activity was determined by radioenzymatic assay (Rotolo et al, infra) using [^14C-methylcholine] sphingomyelin (Amersham) as substrate (FIG. 1A). Induction of ASMase activity was observed within 5 minutes after treatment, and the activation continued for 30 minutes. Ceramide generation was monitored using the diacylglycerol kinase assay (Stancevic et al. PLoS ONE 8, e69025, 2013). […] In further support of this, pre-incubation of BAEC with nystatin prior to treatment with chemotherapy inhibits chemotherapy-induced apoptosis (FIG. 3).
To determine the generality of the results observed, experiments were carried out using an additional endothelial cell line, human coronary artery endothelial cells (HCAEC); experiments were also performed using a different chemotherapeutic agent. […] Next, HCAEC were treated with paclitaxel (100 nM) (data not shown) and etoposide (50 μM) (FIG. 1F), and ceramide generation was evaluated.
To further establish the generality of ASMase activation by various chemotherapeutic agents, BAEC and HCAEC were treated with increasing doses of cisplatin (0.1-50 μM) (data not shown). […] The ASMase/ceramide pathway was activated by chemotherapeutic agents that belong to different classes of chemotherapeutic agents, such as: taxanes, topoisomerase inhibitors, and nucleoside analog metabolic inhibitors. Since such chemotherapy agents are characterized by distinct mechanisms of action in tumor cells, it is surprising that a group of such distinct agents converges on a common molecular (ASMase/ceramide) axis in endothelium. The present confirmation that distinct chemotherapeutic agents activate the ASMase/ceramide pathway permits the present inventors to take into account the results of experiments using single dose radiotherapy, which has been reported to activate the same pathway (Rao, S. S. et al., Axitinib sensitization of high Single Dose Radiotherapy. Radiotherapy and Oncology: Journal of the European Society for Therapeutic Radiology and Oncology 111, 88-93, doi:10.1016/j.radonc.2014.02.010 (2014)).
Gemcitabine was able to activate ASMase in cultured endothelial cells. […]

[3] = system: MCA/129 fibrosarcoma tumors; experiment: IVIM MRI of vascular perfusion in MCA/129 fibrosarcoma tumors; assay type: in vivo, mouse; settings: gemcitabine 240 mg/kg i.p.
Source text: IVIM DW-MRI was first described by Le Bihan et al. (MR imaging of intravoxel incoherent motions: application to diffusion and perfusion in neurologic disorders. Radiology 1986; 161: 401-407). The novelty of our approach lies in repeatedly acquiring IVIM data over time (e.g. “dynamic” IVIM) to monitor the acute effects of radiation (or chemotherapy), a strategy which has not been previously reported. No intravenous contrast administration is required, and IVIM parameters can be measured many times, allowing us to define kinetics of vascular dysfunction after radiation or chemotherapy. Other alternatives, such as DCE-MRI or ^15O-PET, would not serve our purpose as well: although they may be highly reflective of tissue vascularity they cannot be re-injected into a patient to serially monitor changes in vascularity over time. IVIM parameters including perfusion fraction (f), pseudo-diffusion coefficient (D*) and diffusion coefficient (D) were calculated for each lesion, using a biexponential signal decay model and incorporating a correction to account for differences in the T1 and T2 relaxation times of tissue and blood, respectively.
Briefly, MCA/129 fibrosarcoma tumors were implanted in the rear mouse hip, and subjected to intravoxel incoherent motion (IVIM) MRI when tumors reached a size of 150-300 mm^3. […] Data (mean±SEM) are collated from 6 animals per group.

[4] = human, in vivo; cited from earlier work
[5] = system: advanced soft tissue sarcoma; experiment: Phase II trial of gemcitabine and docetaxel with bevacizumab, volumetric tumor response; assay type: in vivo, human
Experimental: Patients with metastatic or locally-recurrent leiomyosarcoma, pleomorphic undifferentiated sarcoma, pleomorphic liposarcoma, rhabdomyosarcoma or angiosarcoma, were treated on a phase II trial of gemcitabine, docetaxel and bevacizumab. Initially the trial was a double-blind, placebo-controlled, randomized trial of gemcitabine and docetaxel with or without bevacizumab, which was modified to a single-arm, open-label, non-randomized study of gemcitabine, docetaxel and bevacizumab. The protocol was approved by the Institutional Review Board of Memorial-Sloan Kettering Cancer Center, and all patients provided written informed consent (Clinicaltrials.gov identifier NCT00887809).
Initially, gemcitabine was administered immediately following bevacizumab.
Volumetric measurement of tumors was performed on an exploratory basis as the original study was not designed or powered to specifically investigate the clinical application of timed anti-angiogenic therapy as a method of tumor chemosensitization. In light of the results from our animal studies, which were made part way through the clinical study period, volumetric measurements were proposed to more ideally facilitate comparison with our pre-clinical data. Furthermore, they likely provide a more meaningful assessment of tumor response than the RECIST based evaluation for soft tissue sarcoma. […] Baseline CT or MRI was used to identify a dominant target lesion for measurement. Follow-up scans were evaluated for best response. Tumor contours were defined manually and summed across all axial slices to calculate a total volume measurement. Tumor response was defined as at least a 30% reduction in tumor volume. Both a two-tailed Fisher's Exact Test and the Mann-Whitney Rank-Sum test were employed to evaluate significance in patient volumetric response rates at the first interval treatment scan (week 6) and at time of maximum treatment response.
Patients enrolled in the trial had metastatic or recurrent leiomyosarcoma, pleomorphic undifferentiated sarcoma, pleomorphic liposarcoma, rhabdomyosarcoma or angiosarcoma (FIG. 7A).
A total of 38 patients were treated. A subset of patients received placebo instead of bevacizumab. […] Baseline CT scan or MRI was used to identify a dominant target lesion for volumetric measurement, followed by volumetric assessment on initial post-treatment follow-up scan ([…]) and over the treatment course (representative CT time course of abdominal metastasis is shown in FIG. 7B showing regression of metastatic tumor).

Dose dependence of ASMase activation ([2]; increasing doses of gemcitabine, 5 minutes)	Molecule	Endothelial cell apoptosis ([1]; Sv129/BL6 asmase+/+)	Tumor cell apoptosis [1]	ASMase activation ([2]; etoposide 50 μM, cisplatin 0.1-50 μM, gemcitabine 100 nM time-course)	Time of peak vascularity and diffusion reduction after treatment [3] [min]	Diffusion (D*) ([3]; over 1 hour)	Vascularity (Fp) ([3]; over 1 hour)	Half-life (t1/2) [4] [days]	Patients with >30% tumor reduction, initial follow-up scan ([5]; after two 3-week cycles, bevacizumab-gemcitabine 1-hour interval, 14 patients) [%]	Patients with significant tumor response (≥30% reduction in tumor volume), initial follow-up scan ([5]; after two 3-week cycles, immediate consecutive bevacizumab-gemcitabine, 16 patients) [%]	Patients with significant tumor response, best response ([5]; bevacizumab 15 mg/kg 1 hour prior to gemcitabine, docetaxel day 8, 14 patients) [%]	Patients with significant tumor response (>30% reduction in tumor volume), best response ([5]; bevacizumab 15 mg/kg immediately before gemcitabine, docetaxel day 8, 16 patients) [%]
dose-dependent manner	Nc1ccn([C@@H]2O[C@H](CO)[C@@H](O)C2(F)F)c(=O)n1 [gemcitabine]	induced time-dependent endothelial cell apoptosis	did not cause tumor cell apoptosis	triggered rapid cellular activation of ASMase	15 to 30	reduced in a reversible manner	reduced in a reversible manner					
	bevacizumab: monoclonal antibody that targets circulating VEGF A, long-acting AAA							21	64	25	93	38
